One may read the IC50 as the point on the concentration scale where inhibition reaches its midpoint. In general, EC50 refers to the concentration giving half of the maximal effect.

Where two headings read alike, the source gives them in different places. Starred links: 1 amine or outer side, 2 acyl side, 3 side chain; linkers in the order of their positions; H or OH if unused. Non-standard residues stand in square brackets, D forms with d. Residues, ends and D or L forms follow the SMILES beside them. No end group written: not given here. X1 = O=C([C@H](Cc1ccc2ccc3cccc4ccc1c2c34)N[*:1])[*:2]; Phe(4-Cl) = N[C@@H](Cc1ccc(Cl)cc1)C(=O)O; 2Nal = N[C@@H](Cc1ccc2ccccc2c1)C(=O)O; Cha = N[C@@H](CC1CCCCC1)C(=O)O; pGlu = O=C1CC[C@@H](C(=O)O)N1; NMeA = CN[C@@H](C)C(=O)O; Dap = NC[C@H](N)C(=O)O

Assay [1] deals with T1, APJ (Homo sapiens, UniProt P35414).
T1 construct: expressed in transfected cells; host or cells: CHO (CHO-A10; clone 6 for the cAMP assay)
T1 sequence (P35414 1-380): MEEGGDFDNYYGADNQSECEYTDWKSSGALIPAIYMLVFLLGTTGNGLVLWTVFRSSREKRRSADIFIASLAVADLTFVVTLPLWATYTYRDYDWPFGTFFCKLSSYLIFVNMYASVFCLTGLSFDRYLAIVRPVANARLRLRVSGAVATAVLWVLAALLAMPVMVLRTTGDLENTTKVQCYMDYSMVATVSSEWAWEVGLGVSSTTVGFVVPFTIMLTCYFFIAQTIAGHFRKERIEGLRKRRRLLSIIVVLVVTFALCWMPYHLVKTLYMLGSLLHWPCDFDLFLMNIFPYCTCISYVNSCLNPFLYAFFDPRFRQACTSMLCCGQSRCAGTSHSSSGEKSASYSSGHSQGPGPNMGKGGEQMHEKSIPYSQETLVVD
In words: Receptor binding assay-2 (compound in Reference Example 2 used). On the procedure:
This product was mixed with an equal volume of an assay buffer (50 mM Tris-HCl/pH 7.5, 5 mM EDTA, 0.5 mM PMSF, 20 μg/ml leupeptin, 0.1 μg/ml pepstatin A, 4 μg/ml E-64 (Peptide Research Laboratory, Co.), 0.1% bovine serum albumin) and stored at −30° C. before use.
CHO-A10 cells were cultured, recovered with PBS containing 5 mM EDTA from a culture vessel, and suspended in the above-mentioned assay buffer not containing bovine serum albumin. The cells were homogenized 3 times at 12,000 rpm for 15 seconds by a Polytron homogenizer (manufactured by Kinematica Inc.) and then centrifuged (1000×g, 4° C., 10 minutes), and the supernatant was recovered. The precipitates were subjected again to the same procedure as above, and the respective supernatants were combined and centrifuged at 100,000×g, 4° C. for 1 hour, to recover precipitates (membrane fraction). The membrane fraction was suspended again in a small amount of the buffer, homogenized with a Teflon homogenizer and stored at −80° C. before use.
Binding assay was carried out under the following conditions. […] Measurement of non-specific binding was carried out using a well containing 1 μM unlabeled compound in place of the test sample. After the incubation was finished, a cell harvester (Packard) adapted to 96 wells and a filter unit (GF/C, Packard) were used for separation thereby capturing the membrane fraction on the filter. After the filter was sufficiently dried, Microcinti 0 (Packard) was added thereto, and using Top Count (Packard), the amount of the labeled material captured together with the membrane fraction on the filter was measured.

In assay [2] the target is T1, APJ. Nature of the assay: Inhibitory activity on forskolin-stimulated cAMP production in CHO-A10 clone 6 cells. Format: cell-based. On the procedure:
Measurement of an Inhibitory Activity on Forskolin-Stimulated cAMP Production
Hanks' balanced salt solution (HBSS) containing 0.2 mM 3-isobutyl-1-methylxanthine (IBMX) and 0.05% bovine serum albumin was prepared as an assay buffer, and each well was washed twice with 500 μl assay buffer and pre-incubated at 37° C. for 30 minutes. Further, each well was washed once with 500 μl assay buffer, and a sample dissolved in the assay buffer containing 1 μM forskolin was added at a volume of 500 μl/well and incubated at 37° C. for 30 minutes. Wells incubated with the assay buffer not containing forskolin were prepared in the same manner in order to determine the basal level of cellular cAMP production, while wells incubated with the assay buffer containing forskolin were also prepared in order to determine the maximum level of cAMP production stimulated with forskolin. After incubation was finished, each well was washed once with 500 μl assay buffer, and 500 μl lysis buffer 1B attached to a cAMP EIA system from Amersham was added to each well, to extract cAMP. According to the protocol of the kit, 100 μl of each extract was used to determine the level of cAMP. For the inhibitory activity of the sample on cAMP production, the difference (inhibited cAMP production) between the maximum level and the level of cAMP in the sample-containing wells was determined, and the inhibitory activity was expressed as percentage relative to the increased level of cAMP production stimulated with forskolin (that is, the difference between the maximum level and basal level), and from this dose-reaction curve, the EC50 was determined.

Setting [3] is: compound in Reference Example 2 used as ligand, read-out: IC50.

For `CC(C)C[C@H](NC(=O)[C@H](CCCNC(=N)N)NC(=O)[C@@H]1CCCN1C(=O)[C@@H](N)CCCNC(=N)N)C(=O)N[C@@H](CO)C(=O)N[C@@H](CN)C(=O)N[C@@H](CCCNC(=N)N)C(=O)NCC(=O)N1CCC[C@H]1C(=O)N[C@@H](CC1CCCCC1)C(=O)N1CCC[C@H]1C(=O)N[C@@H](Cc1ccc(Cl)cc1)C(=O)O` [Compound in Ex. 65, Arg-Pro-Arg-Leu-Ser-Dap-Arg-Gly-Pro-Cha-Pro-Phe(Cl)] (H-RPRLS[Dap]RGP[Cha]P[Phe(4-Cl)]-OH), the IC50 at APJ [1] (setting [3]) turned out to be 0.26 nM. For the same compound, on APJ [2] (read-out: EC50), the EC50 was found to be 0.52 nM.

With `CSCC[C@H](NC(=O)[C@H](C)N(C)C(=O)CNC(=O)[C@H](CCCNC(=N)N)NC(=O)[C@H](C)NC(=O)[C@H](CO)NC(=O)[C@H](CC(C)C)NC(=O)[C@H](CCCNC(=N)N)NC(=O)[C@@H]1CCCN1C(=O)[C@@H](N)CCCNC(=N)N)C(=O)N1CCC[C@H]1C(=O)N[C@@H](Cc1ccc(Cl)cc1)C(=O)O` [Compound in Ex. 55] (H-RPRLSARG[NMeA]MP[Phe(4-Cl)]-OH; N-terminus and C-terminus assumed), the IC50 on APJ [1] (setting [3]) was found to be 0.09 nM. Moreover, the EC50 on APJ [2] (read-out: EC50) turned out to be 0.27 nM.

Regarding `CSCC[C@H](NC(=O)[C@@H]1CCCN1C(=O)CNC(=O)[C@H](CCCCN)NC(=O)[C@H](Cc1c[nH]cn1)NC(=O)[C@H](CO)NC(=O)[C@H](CC(C)C)NC(=O)[C@H](CCCNC(=N)N)NC(=O)[C@@H]1CCCN1C(=O)[C@@H](N)CCCNC(=N)N)C(=O)N1CCC[C@H]1C(=O)N[C@@H](CC1CCCCC1)C(=O)O` [Compound in Ex. 49], on APJ [1] (setting [3]), the IC50 was 3.5 nM. Further, the EC50 on APJ [2] (read-out: EC50) came out at 0.71 nM.

In the case of `CSCC[C@H](NC(=O)[C@@H]1CCCN1C(=O)CNC(=O)[C@H](CCCNC(=N)N)NC(=O)[C@H](C)NC(=O)[C@H](CO)NC(=O)[C@H](CC(C)C)NC(=O)[C@H](CCCNC(=N)N)NC(=O)[C@@H]1CCCN1C(=O)[C@H](CCCNC(=N)N)NC(=O)[C@H](CCC(N)=O)NC(=O)[C@H](CCCNC(=N)N)NC(=O)[C@@H](N)CCCNC(=N)N)C(=O)N1CCC[C@H]1C(=O)N[C@@H](Cc1ccccc1)C(=O)O` [Compound in Ex. 17], the IC50 on APJ [1] (setting [3]) stood at 0.036 nM. The EC50 at APJ [2] (read-out: EC50) is 0.39 nM.

As to RPRLFARGPMF [Compound in Ex. 47], the half-inhibitory concentration (IC50) on APJ [1] (setting [3]) was 1.8 nM. Further, the EC50 at APJ [2] (read-out: EC50) amounted to 0.36 nM.

Consider `CSCC[C@H](NC(=O)[C@@H]1CCCN1C(=O)CNC(=O)[C@H](CCCCN)NC(=O)[C@H](Cc1c[nH]cn1)NC(=O)[C@H](CO)NC(=O)[C@H](CC(C)C)NC(=O)[C@H](CCCNC(=N)N)NC(=O)[C@@H]1CCCN1C(=O)[C@@H](N)CCCNC(=N)N)C(=O)N[C@@H](Cc1ccc(Cl)cc1)C(=O)O` [Compound in Ex. 28] (H-RPRLSHKGPM[Phe(4-Cl)]-OH; N-terminus and C-terminus assumed), for which, at APJ [1] (setting [3]), the IC50 came to 0.17 nM. Further, at APJ [2] (read-out: EC50), the EC50 was determined as 0.16 nM.

Consider `CC(C)C[C@H](NC(=O)[C@H](CCCNC(=N)N)NC(=O)[C@@H]1CCCN1C(=O)[C@@H](N)CCCNC(=N)N)C(=O)N[C@@H](CO)C(=O)N[C@@H](C)C(=O)N[C@@H](CCCNC(=N)N)C(=O)NCC(=O)N1CCC[C@H]1C(=O)N[C@@H](CC1CCCCC1)C(=O)N[C@@H](Cc1ccc2ccc3cccc4ccc1c2c34)C(=O)O` [Compound in Ex. 60] (H-RPRLSARGP[Cha][X1]-OH), for which the IC50 on APJ [1] came out at 0.8 nM. Besides, the EC50 on APJ [2] was 1.1 nM.

For the compound `CC(=O)NC[C@H](NC(=O)[C@H](CO)NC(=O)[C@H](CC(C)C)NC(=O)[C@H](CCCNC(=N)N)NC(=O)[C@@H]1CCCN1C(=O)[C@@H](N)CCCNC(=N)N)C(=O)N[C@@H](CCCNC(=N)N)C(=O)NCC(=O)N1CCC[C@H]1C(=O)N[C@@H](CC1CCCCC1)C(=O)N1CCC[C@H]1C(=O)N[C@@H](Cc1ccc(Cl)cc1)C(=O)O` [Compound in Ex. 66, Arg-Pro-Arg-Leu-Ser-Dap(Ac)-Arg-Gly-Pro-Cha-Pro-Phe(Cl)] (H-RPRLS[Dap](Ac)RGP[Cha]P[Phe(4-Cl)]-OH), the IC50 on APJ [1] (setting [3]) came to 0.11 nM. Moreover, the EC50 at APJ [2] (read-out: EC50) was 0.69 nM.

As for `CSCC[C@H](NC(=O)[C@@H]1CCCN1C(=O)CNC(=O)[C@H](CCCNC(=N)N)NC(=O)[C@H](C)NC(=O)[C@H](CO)NC(=O)[C@H](CC(C)C)NC(=O)[C@H](CCCNC(=N)N)NC(=O)[C@@H]1CCCN1C(=O)[C@H](CCCNC(=N)N)NC(=O)[C@H](CCC(N)=O)NC(=O)[C@H](CCCNC(=N)N)NC(=O)[C@@H](N)CCCNC(=N)N)C(=O)N1CCC[C@H]1C(=O)N[C@@H](Cc1ccc(Cl)cc1)C(N)=O` [Compound in Ex. 59], on APJ [1] (setting [3]), the IC50 turned out to be 0.18 nM. Besides, at APJ [2] (read-out: EC50), the EC50 amounted to 0.32 nM.

Turning to `CC(C)C[C@H](NC(=O)[C@H](C)NC(=O)[C@@H]1CCCN1C(=O)[C@@H](N)CCCNC(=N)N)C(=O)N[C@@H](CO)C(=O)N[C@@H](Cc1c[nH]cn1)C(=O)N[C@@H](CCCCN)C(=O)NCC(=O)N1CCC[C@H]1C(=O)N[C@@H](CC1CCCCC1)C(=O)N1CCC[C@H]1C(=O)N[C@@H](Cc1ccc(Cl)cc1)C(=O)O` [Compound in Ex. 58] (H-RPALSHKGP[Cha]P[Phe(4-Cl)]-OH; N-terminus and C-terminus assumed), at APJ [1] (setting [3]), the IC50 amounted to 0.15 nM. For the same compound, the EC50 on APJ [2] (read-out: EC50) amounted to 0.41 nM.

Turning to `CSCC[C@H](NC(=O)[C@@H]1CCCN1C(=O)CNC(=O)[C@H](CCCCN)NC(=O)[C@H](Cc1c[nH]cn1)NC(=O)[C@H](CO)NC(=O)[C@H](CC(C)C)NC(=O)[C@H](CCCNC(=N)N)NC(=O)[C@@H]1CCCN1C(=O)[C@@H](N)CCCNC(=N)N)C(=O)N1CCC[C@H]1C(=O)N[C@@H](Cc1ccc2ccccc2c1)C(=O)O` [Compound in Ex. 32], the IC50 at APJ [1] (setting [3]) was 0.35 nM. The EC50 at APJ [2] (read-out: EC50) worked out at 0.1 nM.

As to `CSCC[C@H](NC(=O)[C@@H]1CCCN1C(=O)CNC(=O)[C@H](CCCNC(=N)N)NC(=O)[C@H](CCCNC(=N)N)NC(=O)[C@H](Cc1ccccc1)NC(=O)[C@H](CC(C)C)NC(=O)[C@H](CCCNC(=N)N)NC(=O)[C@@H]1CCCN1C(=O)[C@H](CCCNC(=N)N)NC(=O)[C@@H]1CCC(=O)N1)C(=O)N1CCC[C@H]1C(=O)N[C@@H](Cc1ccccc1)C(=O)O` [Compound in Ex. 42] ([pGlu]RPRLFRRGPMPF-OH), on APJ [1] (setting [3]), the IC50 was found to be 0.81 nM. Besides, the EC50 at APJ [2] (read-out: EC50) is 0.15 nM.

For the compound `CSCC[C@H](NC(=O)[C@@H]1CCCN1C(=O)CNC(=O)[C@H](CCCCN)NC(=O)[C@H](Cc1c[nH]cn1)NC(=O)[C@H](CO)NC(=O)[C@H](CC(C)C)NC(=O)[C@H](CCCNC(=N)N)NC(=O)[C@@H]1CCCN1C(=O)[C@@H](N)CCCNC(=N)N)C(=O)N[C@@H](Cc1ccc2ccccc2c1)C(=O)O` [Compound in Ex. 40] (H-RPRLSHKGPM[2Nal]-OH), the IC50 on APJ [1] (setting [3]) was determined as 0.61 nM. At APJ [2] (read-out: EC50), the EC50 is 0.37 nM.

As to `C[C@H](NC(=O)[C@H](CCCNC(=N)N)NC(=O)[C@@H]1CCCN1C(=O)[C@@H](N)CCCNC(=N)N)C(=O)N[C@@H](CO)C(=O)N[C@@H](Cc1c[nH]cn1)C(=O)N[C@@H](CCCCN)C(=O)NCC(=O)N1CCC[C@H]1C(=O)N[C@@H](CC1CCCCC1)C(=O)N1CCC[C@H]1C(=O)N[C@@H](Cc1ccc(Cl)cc1)C(=O)O` [Compound in Ex. 57] (H-RPRASHKGP[Cha]P[Phe(4-Cl)]-OH; N-terminus and C-terminus assumed), on APJ [1] (setting [3]), the IC50 was determined as 0.17 nM. For the same compound, the EC50 at APJ [2] (read-out: EC50) was found to be 0.52 nM.

The values above are taken from patent US20040116336A1, “Peptide derivatives” (priority 2002, published 2004).
